In patent US20110009616A1, “AGENT FOR PREVENTING ARTERIOSCLEROSIS” (priority 2006, published 2011):

Tests used:
[1] = tested on: living cells (mitochondria activity); assay: Cytotoxicity, number of living cells by Cell counting Kit-8 (WST-8) (Example 5); type: cell-based; details: 7 hours with compound; concentrations where the inhibitory activities were effective; results not shown
Description: In order to examine cytotoxicities of the compounds in Examples 1 to 4 and Comparative Examples 1 to 9, the number of living cells was measured as follows. As a method for measuring the number of living cells, a MTT method using a reduction of MTT (3-(4,5-dimethyl-2-thiazolyl)-2,5-diphenyltetrazolium bromide) to formazan (formed as a poorly soluble precipitate) by dehydrogenase in mitochondria, and the like, are generally used. Thus, “Cell counting Kit-8” (manufactured by Dojindo Laboratories, WST-8 which forms a water soluble formazan is used instead of MTT), a modified method of the MTT method, was used for the measurement of the number of living cells. Specifically, 100 μL of cells were seeded into inner 60 wells of a 96-well plate (manufactured by Falcon) so as to be 3.0×10^4 cells/mL, respectively (in order to avoid temperature variation, 100 μL of a culture medium was only added into the outer 36 wells). After cultivating for 2 days (37° C.), 50 μL of the culture supernatant was removed and 50 μL of a new culture medium containing each compound with an appropriate dilution rate was added. After adding the new culture medium containing each compound, the cells were cultivated for 7 hours. After 7 hours, each well was washed with 100 μL of the culture medium without the compounds three times, and then 3 μL of a culture medium containing “WST-8”, a “Cell counting Kit-8” solution, was added to each well. After cultivating for 1 hour, absorbance at 450 nm of each culture medium was measured and converted to the number of living cells. It is considered that three washing operations in the process omit the effect of the compounds in the external solution on the absorbance.

[2] = molecular target: T1, bLOX-1 (Bos taurus, UniProt P79391); assay: Plate assay: binding of oxidized LDL to recombinant bLOX-1 (Test Example 1); design: 6xHis (N); made in house; host or cells: E. coli; species or system bovine; details: final concentration of 16 μM, FIG. 1; for binding rate of oxidized LDL to bLOX-1 (inhibition of binding): control without compounds = 100
Description: A LOX-1 antagonist activity of the agent for preventing arteriosclerosis obtained in the above-mentioned Example was evaluated on a LOX-1 binding inhibition rate to oxidized LDL using a recombinant LOX-1 protein obtained from E. coli.
As for the recombinant LOX-1, in cDNA of LOX-1 derived from bovine (bLOX-1) or derived from human (hLOX-1), a sequence to the C-terminal removing a transmembrane region was inserted into a pQE30 vector having a 6-histidine tag sequence (6×His) at the N-terminal (manufactured by Qiagen) so as to have a sequence aligned to a translation frame. The vector was transformed into E. coli able to be controlled by T5 promoter and the expression of each LOX-1 was induced under induction of 1 m M of isopropyl-1-thio-β-D-[…] (IPTG). After the induction of each expression at 37° C. for 3 hours, since the recombinant LOX-1 was obtained from an insoluble fraction, E. coli was lysed in a buffer containing 6 M guanidine hydrochloride and purified by affinity column chromatography using a Ni-NTA agarose column (manufactured by Qiagen) as the marker of 6×His (solvent: phosphoric acid buffer). Furthermore, each of the elution fractions containing LOX-1 was dialyzed in a 20 mM tris buffer (pH 9.0) and a 8M urea containing buffer, applied to a HiTrap Q column, an anion exchanger, (manufactured by Amersham), and eluted and purified with a linear concentration gradient of NaCl. Each of the fractions containing LOX-1 obtained above was reduced in a buffer containing excess amount of DTT (dithiothreitol), and then intramolecular S-S bonds were unwinded by a redox system using a mixture of oxidized […] low molecular thiol compounds. Each LOX-1 obtained above has a binding ability to the oxidized LDL and will be used as a LOX-1 standard for the following plate assays.
The plate assay was carried out using MaxiSorp Immuno Plate (96-well type, manufactured by NUNC). Each LOX-1 purified above was prepared with a PBS buffer so as to be 5 μg/mL, and 100 μL of the solution was applied to each well. After leaving at 4° C. overnight, each well was washed with 400 μL of a PBS buffer twice (400 μL×2) and 300 μL of a PBS buffer containing 25% BlockAce (manufactured by Dainippon Sumitomo Pharma Co., Ltd.) was applied to each well. After leaving at 4° C. overnight, each well was washed with 400 μL of a PBS buffer twice (400 μL×2), a solution of ethyl pheophorbide a was prepared with a PBS buffer containing 1% bovine serum albumin (BSA) so as to have an appropriate dilution rate, and 100 μL of the solution was applied to each well. After leaving at 4° C. overnight, each well was washed with 400 μL of a PBS buffer three times (400 μL×3), a solution of oxidized LDL was prepared with a PBS buffer so as to be 5 μg/mL, and 100 μL of the solution was applied to eachr well. After leaving at 4° C. overnight, each well was washed with 400 μL of a PBS buffer three times (400 μL×3), a horseradish peroxidase-conjugated anti-apolipoprotein B antibody (manufactured by The Binding Site) was diluted 1000 times with a PBS buffer, and 100 μL of the solution was applied to each well. After leaving at room temperature for 2 hours, each well was washed with 400 μL of a PBS buffer five times (400 μL×5), and 100 μL of a 3,3′,5,5′-tetramethylbenzidine (TMB) peroxidase-enzyme immunoassay (EIA)-substrate-kit reagent (manufactured by Bio-Rad) was applied to each well. After an appropriate reaction period, 50 μL of 2M H2SO4 was applied to each well to stop the reaction. Finally, a LOX-1 antagonist activity (an oxidized LDL binding inhibition rate to LOX-1) was determined by detection at 450 nm.
Target sequence in this assay (P79391 57-270 limits assumed): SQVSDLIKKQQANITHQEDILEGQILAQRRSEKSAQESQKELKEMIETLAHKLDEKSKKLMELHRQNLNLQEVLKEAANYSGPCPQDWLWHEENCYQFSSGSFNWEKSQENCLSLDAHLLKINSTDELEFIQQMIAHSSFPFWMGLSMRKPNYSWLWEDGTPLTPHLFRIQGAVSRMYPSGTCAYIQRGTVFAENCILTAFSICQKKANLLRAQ

[3] = molecular target: T1, bLOX-1; assay: Fluorescently labeled oxidized LDL uptake into CHO cells stably expressing bLOX-1 (Examples 6, 7); type: cell-based, bovine; design: By a positive screening using a full-length bLOX cDNA; expressed in transfected cells; details: Example 7; FIG. 6
Target sequence in this assay (P79391 whole entry): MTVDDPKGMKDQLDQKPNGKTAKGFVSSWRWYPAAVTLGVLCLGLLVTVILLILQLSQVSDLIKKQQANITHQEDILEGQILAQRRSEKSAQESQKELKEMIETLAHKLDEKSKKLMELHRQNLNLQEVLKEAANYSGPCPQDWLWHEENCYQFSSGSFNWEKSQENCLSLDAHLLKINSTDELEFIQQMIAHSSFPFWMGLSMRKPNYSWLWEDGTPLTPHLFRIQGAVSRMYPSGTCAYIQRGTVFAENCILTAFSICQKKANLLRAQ

| Compound | cytotoxicity (number of living cells) [1] | inhibition activity on binding of oxidized LDL to bLOX-1 (ranking among actives) [2] | binding rate of oxidized LDL to bLOX-1 (inhibition of binding) [2] | inhibition of DiI-OxLDL uptake in CHO cells expressing bLOX, compared with inhibition of CTB uptake [3] |
| --- | --- | --- | --- | --- |
| C=CC1=C(C)c2cc3[nH]c(c4c5nc(cc6[nH]c(cc1n2)c(C)c6CC)C(C)=C5C(=O)C4C(=O)OC)C(CCC(=O)OCC)C3C (stereo not drawn) [ethyl pheophorbide a] | did not show the cytotoxicity | high inhibition activities | inhibit the binding significantly | – |
| uroporphyrin III | did not show the cytotoxicity | – | inhibit the binding significantly | – |
| hematoporphyrin | did not show the cytotoxicity | high inhibition activities | inhibit the binding significantly | – |
| C[C@@H]1[C@H](O)[C@@H](C)/C=C/C=C/CC/C=C/C=C/C=C/C=C/C(O[C@H]2O[C@H](C)[C@@H](O)[C@H](N)[C@@H]2O)CC2O[C@](O)(CC(O)C(O)CCC(O)CC(O)CC(O)CC(=O)O[C@H]1C)CC(O)C2C(=O)O (stereo partly drawn) [nystatin, Nystatin] | – | – | – | nearly equal to that of CTB |
